Literature values, collected in patent publication US7235541B2, “Neurokinin antagonists for use as medicaments” (Astrazeneca AB, priority 2000, dated 2007).
Where two headings read alike, the source gives them in different places. Peptide text beside a SMILES is read from it.

Columns and labels:
[1] = Light-dark box
[2] = Marmoset human intruder; Walsh et al., Psychopharmacology 1995
[3] = Elevated plus-maze
[4] = Forced swim test (depression model); only at 30 mg/kg bid; Vassout et al, Neuropeptides 1994
[5] = Walsh et al., Psychopharmacology 1995
[6] = Stratton et al., Eur. J. Pharmacol. 1993
[7] = Teixeira et al., Eur J Pharmacol 1996

SMILES	Outcome [1, 5]	Outcome [2]	Outcome [1, 6]	Outcome [3, 7]	further results
COC1(C[S@@+]([O-])c2ccccc2)CCN(CCc2c[nH]c3ccc(F)cc23)CC1 [GR159897]	anxiolytic	anxiolytic			
C[C@H](NC(=O)CNC(=O)C1CCCCC1)C(=O)N[C@H](Cc1c[nH]c2ccccc12)C(=O)N[C@@H](Cc1ccccc1)C(=O)N(C)C [GR100679] (HELM PEPTIDE1{[O=C(C1CCCCC1)[*:2]].G.A.[dW].F.[CN(C)[*:1]]}$$$$V2.0)			anxiolytic		
CN(Cc1ccccc1)C(=O)[C@H](Cc1ccc2ccccc2c1)NC(=O)[C@@H]1C[C@@H](O)CN1C(=O)c1cn(C)c2ccccc12 [FK888]				anxiolytic	
CC(=O)NC1(c2ccccc2)CCN(CC[C@H](CN(C)C(=O)c2ccccc2)c2ccc(Cl)c(Cl)c2)CC1 [SR48968]	anxiolytic	anxiolytic	anxiolytic	anxiolytic	
Cc1cc(C)cc(C(=O)N2CC[C@H](NCc3ccnc4ccccc34)C[C@H]2Cc2ccccc2)c1 [CGP 49823]					Outcome (Social interaction test, Vassout et al, Neuropeptides 1994): anxiolytic; Outcome (Social interaction, File, Pharm Bio B 1997): anxiolytic; Outcome [4]: antidepressant; Outcome ([3]; Vassout et al, Neuropeptides 1994): inactive
